Laboratory results from the NIST ThermoML archive (doi:10.1016/j.jct.2018.12.039).

Test: xn = mol fraction of the nth substance listed
Details: 100 kPa, Liquid; for speed of sound: Frequency=2 MHz, Linear variable-path acoustic interferometer; for mass density: Vibrating tube method

Cc1ccc(O)cc1 [4-methylphenol] + CCO
Details	mass density, 303.15 K [kg/m3]	mass density, 308.15 K [kg/m3]	mass density, 313.15 K [kg/m3]	mass density, 318.15 K [kg/m3]	speed of sound, 303.15 K [m/s]	speed of sound, 313.15 K [m/s]
x2 = 0	1026.47	1022.56	1018.64	1014.68	1473	1440.2
x2 = 0.1392	1006.2	1002.27	998.32	994.31	1435.7	1402.3
x2 = 0.2624	985.93	981.96	977.97	973.9	1392.4	1359.7
x2 = 0.3722	965.59	961.62	957.61	953.46	1350.4	1318.2
x2 = 0.4707	945.23	941.23	937.2	932.96	1311.9	1280
x2 = 0.5595	924.86	920.83	916.75	912.45	1277.5	1245.8
x2 = 0.6401	904.44	900.38	896.25	891.89	1247	1215.1
x2 = 0.7134	883.97	879.86	875.69	871.3	1220.1	1188
x2 = 0.7805	863.47	859.3	855.09	850.66	1196.3	1164
x2 = 0.8421	842.93	838.68	834.45	829.99	1175.3	1142.8
x2 = 0.8989	822.33	818.01	813.74	809.25	1156.8	1124.1
x2 = 0.9514	801.71	797.31	793.01	788.43	1140.8	1107.9
